Calls of active or inactive are those of the source. No cut-off for these calls is given here.

RAC-alpha serine/threonine-protein kinase (Rattus norvegicus), sequence (P47196 whole entry): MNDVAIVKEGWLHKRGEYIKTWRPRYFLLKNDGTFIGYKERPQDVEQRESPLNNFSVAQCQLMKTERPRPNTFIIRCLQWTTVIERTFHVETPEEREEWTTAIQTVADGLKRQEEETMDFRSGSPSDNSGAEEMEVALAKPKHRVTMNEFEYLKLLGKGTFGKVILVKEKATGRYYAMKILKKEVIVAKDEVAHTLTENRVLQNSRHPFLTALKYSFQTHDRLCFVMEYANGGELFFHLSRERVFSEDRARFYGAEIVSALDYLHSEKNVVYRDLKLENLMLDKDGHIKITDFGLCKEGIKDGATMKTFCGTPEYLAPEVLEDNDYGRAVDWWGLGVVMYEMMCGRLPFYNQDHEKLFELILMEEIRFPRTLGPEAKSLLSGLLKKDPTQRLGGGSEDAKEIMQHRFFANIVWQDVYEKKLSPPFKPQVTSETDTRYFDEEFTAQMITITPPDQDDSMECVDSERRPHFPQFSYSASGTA

One assay relates to PC-12. Nature of the assay: Neuroprotective activity against glutamate-induced apoptotic cell death in rat PC12 cells assessed as decrease in caspase-3 level at 10 to 40 uM measured after 24 hrs. The class given is functional, cell-based.
As to `CC(=O)OC[C@@H]1[C@H]2C[C@H]2[C@]2(C)C=C3OC(=O)C(CO)=C3C[C@@H]12`, the outcome was Active.

The subject of the next assay is PC-12. In words: Neuroprotective activity against glutamate-induced apoptotic cell death in rat PC12 cells assessed as apoptotic neurons at 10 to 40 uM pretreated with compound followed by glutamate challenge measured after 24 hrs by Hoechst 33258 staining based assay (reference value: 65.5%). The class given is functional.
For the compound `CC(=O)OC[C@@H]1[C@H]2C[C@H]2[C@]2(C)C=C3OC(=O)C(CO)=C3C[C@@H]12`, the Activity was 7.2 - 23.7%.

The next assay addresses RAC-alpha serine/threonine-protein kinase (Rattus norvegicus) (UniProt P47196). Nature of the assay: Increase in Akt phosphorylation in glutamate-induced rat PC12 cells at 10 to 40 uM measured after 24 hrs by Western blot analysis.
`CC(=O)OC[C@@H]1[C@H]2C[C@H]2[C@]2(C)C=C3OC(=O)C(CO)=C3C[C@@H]12`: the result was Active.

The next assay has as its system PC-12. Nature of the assay: Neuroprotective activity against glutamate-induced neuronal cell death in rat PC12 cells assessed as increase in cell viability pretreated for 2 hrs followed by glutamate challenge measured after 24 hrs by MTT assay. The class given is functional, cell-based. A general note: Tetrazolium assays rely on reduction of a dye to a coloured formazan, in cell work by metabolically active cells.
As a reminder, the EC50 is the concentration giving half of the maximal effect. Regarding `C=C1CC[C@@H]2C(=C)C[C@@]3(O)OC(=O)C(C)=C3[C@@]2(O)C1`, the 50% effective concentration (EC50) is 15.2 µM.
For the compound `Cc1coc2c1C(=O)[C@H]1O[C@]1(C)CC[C@@H](O)[C@](C)(O)C2`, the EC50 is 70.3 µM.
With `C=C1[C@H](O)CC[C@@]2(C)C[C@@]3(O)OC(=O)C(C)=C3C[C@H]12`, the outcome was inactive.
Same read-out and setting: the same measure for `CC1=C2C(=O)c3c(C)coc3[C@@H](O)[C@]2(C)[C@@H](O)CC1`: “inactive”.
In the case of `C=C1CCC[C@]2(C)C(=O)c3occ(C)c3C[C@@H]12`, the 50% effective concentration (EC50) was found to be 119 µM.
For the compound `CC1=C2C(=O)c3c(C)coc3C[C@@]2(C)C=CC1=O`, the EC50 amounted to 106 µM.
In the case of `CC1=C2C[C@@H]3[C@@](C)(C=C2OC1=O)CCC[C@@]3(C)O`, the outcome was inactive.
Turning to `CC(=O)OC[C@@H]1[C@H]2C[C@H]2[C@]2(C)C=C3OC(=O)C(CO)=C3C[C@@H]12`, the EC50 stood at 3.3 µM.
`CC(=O)OC[C@@H]1[C@H]2C[C@H]2[C@]2(C)C=C3OC(=O)C(C)=C3C[C@@H]12`: the result was inactive.
With `Cc1coc2c1C(=O)[C@H]1[C@](C)(C2=O)[C@@H](O)CC[C@@]1(C)O`, the result was inactive.
`C=C1[C@H]2C[C@H]2[C@]2(COC(C)=O)C[C@@H]3OC(=O)C(C)=C3C[C@@H]12`: the EC50 amounted to 89.5 µM.
Take `C=C1CCC[C@]2(C)C[C@]3(O)OC(=O)C(C)=C3C[C@@H]12` [ATRACTYLENOLIDE III]: the result was inactive and the EC50 turned out to be 36.3 µM.
`COCCOC(=O)C1=C(C)NC(C)=C(C(=O)OC(C)C)C1c1cccc([N+](=O)[O-])c1` (centres undefined) [NIMODIPINE]: the concentration giving a half-maximal response (EC50) turned out to be 97.3 µM.
In the case of `CC1=C2C[C@@]3(C)[C@H](C[C@H]2OC1=O)C(=O)CC[C@@H]3C`, the outcome was inactive.
In the case of `CC(=O)CCc1c(C)ccc2c1C(=O)OC2(C)C`, the concentration for a half-maximal effect (EC50) turned out to be 93.1 µM.
Regarding `C=C1CCC[C@]2(C)C=C3OC(=O)C(C)=C3[C@H](O)[C@@H]12`, the result was inactive.
On the same count and under the same terms, the same measure for `CC1=C(C[C@@H]2OC(=O)[C@@H](C)CC/C=C\2C)C(=O)OC1`: “inactive”; for `Cc1coc2c1C[C@@H]1[C@](C)(CCC[C@@]1(C)O)C2`: “inactive”; for `CC1=C2C(=O)c3c(C)coc3C(=O)[C@@]2(C)[C@@H](O)CC1`: “inactive”.
`CC1=C2C[C@@H]3[C@](C)(CCC[C@]3(C)O)C[C@]2(O)OC1=O`: the result was inactive.
Turning to `Cc1coc2c1C(=O)[C@@H]1[C@@](C)(C2)C(=O)CC[C@@]1(C)O`, the half-maximal effective concentration (EC50) came out at 107 µM.
As for `CC1=C2C(=O)[C@@](O)(C(C)C)CC[C@]2(C)CCC1`, the outcome was inactive.
Regarding `Cc1coc2c1C(=O)[C@@H]1[C@@](C)(C2)[C@H](O)CC[C@@]1(C)O`, the outcome was inactive.
Turning to `Cc1coc2c1C(=O)[C@H]1[C@@H](C)CC[C@H](O)[C@]1(C)C2=O`, the concentration for a half-maximal effect (EC50) was 51.4 µM.
Turning to `C=C[C@]1(C)C[C@@H]2OC(=O)C(C)=C2C[C@H]1C(=C)C` [ISOGERMAFURENOLIDE], the EC50 was determined as 24.3 µM.
Turning to `C=C(C)[C@@H]1CC[C@]2(C)C(=C(C)C(=O)C[C@H]2O)C1`, the result was inactive.
Consider `CC1=C2C[C@@]3(C)[C@H](C[C@@]2(O)OC1=O)C(=O)CC[C@@H]3C`, for which the outcome was inactive.
Take `C=C1CCC[C@]2(C)C=C3OC(=O)C(C)=C3C[C@@H]12`: the outcome was inactive.
With `CC1=C2C(=O)[C@@](O)(C(C)C)CC[C@@]2(C)CCC1=O`, the concentration giving a half-maximal response (EC50) is 132 µM.
For `Cc1coc2c1C(=O)[C@H]1[C@@](C)(O)CCC(=O)[C@]1(C)C2`, the outcome was inactive.

Values taken from ChEMBL document CHEMBL4145580, “Sesquiterpenoids from Chloranthus anhuiensis with Neuroprotective Effects in PC12 Cells” (J Nat Prod, 2018).
